Test results as given in article PMC12775434, “Ultra-large virtual screening unveils potent agonists of the neuromodulatory orphan receptor GPR139” (Nature Communications, 2025).
In brackets after ≈: the same amount, converted by molar mass.

Experiment: Kinetic solubility
Type: physicochemical
Conditions: aqueous buffer, kinetic from dmso stock; 100 mM potassium phosphate buffer, 37 °C
Description: Test compound was added to 100 mM potassium phosphate buffer and incubated at 37 °C for at least 20 h in a heater-shaker. After incubation, the samples were centrifuged at 3000 × g at 37 °C for 30 min to pellet insoluble material and an aliquot of the supernatant was taken for analysis. After dilution of the sample, the concentration of dissolved compound was quantified by liquid chromatography coupled to triple quadrupole mass spectrometry (LC-MS/MS).

**Q.** Which solubility kinetic does the source give for `Cc1nocc1-c1nc(CC(=O)NC(C)c2ccccc2)no1` (stereo not shown) [Compound 1.5, CC(C1=CC=CC=C1)NC(CC2=NOC(C3=CON=C3C)=N2)=O] here?
**A.** 24 µM (≈ 7.5 µg/mL)
